Compound in test [1]: Cn1cc(C2=Nc3cc(NC(=O)C(N)C4CCCCC4)cc4c3C2=CNNC4=O)cn1
The test is described as follows: surviving fraction relative to DMSO-only wells; higher = less growth inhibition. The following applies: exposure time: 5 days. A digest of the protocol: (§1)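 Tumour cell lines in log phase were plated in 384-well plates at 250–500 cells per well, then, after 24 hours, exposed continuously for five days to inhibitors at 0.5, 1, 5, 10, 50, 100, 500 and 1000 nM. Viability came from CellTiter-Glo luminescence, and surviving fraction is that signal normalised to the median of DMSO-only wells. Plates were read after 10 minutes at room temperature, and each line, screened three times, was kept only when replicate Pearson r was >0.7 and median Z' was >0.3.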

Compound in the next test: Nc1nc2[nH]cnc2c(=S)[nH]1 [TIOGUANINE]
Described as above. The following applies: exposure time: 5 days. The procedure, abridged: as §1

± gives the standard deviation of the averaged measurements.

As to SCC003 HEADNECK, the surviving fraction in test [1] (0.5 nM) was 1.03 ± 0.12; in test [1] (1 nM) it was 1.05 ± 0.21; in test [1] (5 nM), 1.1 ± 0.083; in test [1] (10 nM), 1.12 ± 0.041; in test [1] (50 nM) it was 1.1 ± 0.14; in test [1] (100 nM) it was 1.1 ± 0.095. Besides, the surviving fraction in test [1] (500 nM) amounted to 0.902 ± 0.11; in test [1] (1000 nM) it was 0.86 ± 0.12; in the test with TIOGUANINE (0.5 nM), 0.892 ± 0.14; with TIOGUANINE (1 nM), 1 ± 0.1; with TIOGUANINE (5 nM) it was 1.01 ± 0.033; with TIOGUANINE (10 nM), 0.99 ± 0.094. Moreover, the surviving fraction in the test with TIOGUANINE (50 nM) is 0.998 ± 0.098; with TIOGUANINE (100 nM), 1.1 ± 0.12; with TIOGUANINE (500 nM), 0.988 ± 0.047; with TIOGUANINE (1000 nM) it was 0.797 ± 0.027.

SCC36 HEADNECK: the surviving fraction was 0.976 ± 0.11 in test [1] (0.5 nM); 0.979 ± 0.038 in test [1] (1 nM); 1.07 ± 0.062 in test [1] (5 nM); 1.05 ± 0.12 in test [1] (10 nM); 0.753 ± 0.026 in test [1] (50 nM); 0.678 ± 0.045 in test [1] (100 nM). Besides, the surviving fraction in test [1] (500 nM) is 0.282 ± 0.037; in test [1] (1000 nM) it was 0.19 ± 0.025; in the test with TIOGUANINE (0.5 nM), 1.03 ± 0.034; in the test with TIOGUANINE (1 nM), 1.09 ± 0.028; with TIOGUANINE (5 nM), 1.16 ± 0.074; with TIOGUANINE (10 nM) it was 1.18 ± 0.078. The surviving fraction in the test with TIOGUANINE (50 nM) is 1.24 ± 0.082; with TIOGUANINE (100 nM), 1.12 ± 0.091; with TIOGUANINE (500 nM), 1.13 ± 0.11; in the test with TIOGUANINE (1000 nM), 1.06 ± 0.1.

In the case of SCC90 HEADNECK, the surviving fraction in test [1] (0.5 nM) is 0.92 ± 0.099; in test [1] (1 nM), 0.952 ± 0.11; in test [1] (5 nM) it was 0.943 ± 0.12; in test [1] (10 nM), 0.991 ± 0.014; in test [1] (50 nM), 0.891 ± 0.057; in test [1] (100 nM), 0.702 ± 0.029. The surviving fraction in test [1] (500 nM) was found to be 0.15 ± 0.0075; in test [1] (1000 nM), 0.068 ± 0.0076; in the test with TIOGUANINE (0.5 nM) it was 0.874 ± 0.047; with TIOGUANINE (1 nM) it was 0.873 ± 0.057; with TIOGUANINE (5 nM), 1.16 ± 0.12; with TIOGUANINE (10 nM) it was 1.09 ± 0.12. For the same test system, the surviving fraction with TIOGUANINE (50 nM) came to 1.03 ± 0.17; in the test with TIOGUANINE (100 nM), 1.08 ± 0.15; with TIOGUANINE (500 nM), 0.86 ± 0.045; with TIOGUANINE (1000 nM) it was 0.743 ± 0.099.

As to SG27 HEADNECK, the surviving fraction amounted to 1.11 ± 0.17 in test [1] (0.5 nM); 0.979 ± 0.096 in test [1] (1 nM); 0.898 ± 0.059 in test [1] (5 nM); 1.01 ± 0.022 in test [1] (10 nM); 0.904 ± 0.12 in test [1] (50 nM); 0.917 ± 0.18 in test [1] (100 nM). Further, the surviving fraction in test [1] (500 nM) was determined as 0.895 ± 0.042; in test [1] (1000 nM), 0.839 ± 0.035; with TIOGUANINE (0.5 nM), 0.982 ± 0.054; with TIOGUANINE (1 nM) it was 0.995 ± 0.12; in the test with TIOGUANINE (5 nM), 1.04 ± 0.091; with TIOGUANINE (10 nM) it was 0.984 ± 0.13. Also, the surviving fraction in the test with TIOGUANINE (50 nM) turned out to be 1 ± 0.089; with TIOGUANINE (100 nM) it was 1.02 ± 0.12; in the test with TIOGUANINE (500 nM), 1.11 ± 0.024; with TIOGUANINE (1000 nM), 0.953 ± 0.13.

On to SG43 HEADNECK, for which the surviving fraction in test [1] (0.5 nM) was 1.08 ± 0.17; in test [1] (1 nM), 0.969 ± 0.1; in test [1] (5 nM), 0.929 ± 0.19; in test [1] (10 nM), 1.01 ± 0.37; in test [1] (50 nM) it was 1.11 ± 0.21; in test [1] (100 nM), 1.06 ± 0.15. Besides, the surviving fraction in test [1] (500 nM) came to 0.888 ± 0.098; in test [1] (1000 nM), 0.968 ± 0.097; with TIOGUANINE (0.5 nM), 1 ± 0.073; with TIOGUANINE (1 nM), 0.986 ± 0.23; in the test with TIOGUANINE (5 nM), 0.684 ± 0.14; with TIOGUANINE (10 nM), 0.988 ± 0.083. The surviving fraction in the test with TIOGUANINE (50 nM) came to 0.778 ± 0.18; in the test with TIOGUANINE (100 nM), 0.895 ± 0.15; in the test with TIOGUANINE (500 nM), 0.91 ± 0.1; with TIOGUANINE (1000 nM) it was 1.11 ± 0.13.

As to SIHA CERVIX, the surviving fraction in test [1] (0.5 nM) turned out to be 1.053 ± 0.0049; in test [1] (1 nM), 0.972 ± 0.02; in test [1] (5 nM), 1.06 ± 0.086; in test [1] (10 nM), 1.06 ± 0.043; in test [1] (50 nM) it was 1.02 ± 0.05; in test [1] (100 nM), 1.05 ± 0.07. Besides, the surviving fraction was found to be 0.917 ± 0.059 in test [1] (500 nM); 0.524 ± 0.024 in test [1] (1000 nM); 0.848 ± 0.07 in the test with TIOGUANINE (0.5 nM); 0.858 ± 0.097 in the test with TIOGUANINE (1 nM); 0.994 ± 0.044 with TIOGUANINE (5 nM); 0.967 ± 0.084 with TIOGUANINE (10 nM). Besides, the surviving fraction in the test with TIOGUANINE (50 nM) was 0.97 ± 0.043; in the test with TIOGUANINE (100 nM), 0.987 ± 0.078; in the test with TIOGUANINE (500 nM), 0.817 ± 0.029; with TIOGUANINE (1000 nM) it was 0.856 ± 0.029.

As for SJSA1 BONE, the surviving fraction in test [1] (0.5 nM) worked out at 1.023 ± 0.0096; in test [1] (1 nM), 0.984 ± 0.02; in test [1] (5 nM) it was 1.01 ± 0.061; in test [1] (10 nM) it was 1.06 ± 0.036; in test [1] (50 nM) it was 1.03 ± 0.021; in test [1] (100 nM), 1.006 ± 0.0057. The surviving fraction in test [1] (500 nM) is 0.526 ± 0.044; in test [1] (1000 nM), 0.337 ± 0.018; with TIOGUANINE (0.5 nM) it was 1.05 ± 0.038; with TIOGUANINE (1 nM) it was 1.05 ± 0.092; with TIOGUANINE (5 nM), 1.033 ± 0.0062; with TIOGUANINE (10 nM) it was 1.01 ± 0.035. Also, the surviving fraction with TIOGUANINE (50 nM) was found to be 1.1 ± 0.041; in the test with TIOGUANINE (100 nM), 1.08 ± 0.036; in the test with TIOGUANINE (500 nM) it was 1.016 ± 0.0081; in the test with TIOGUANINE (1000 nM), 0.912 ± 0.019.

With SKBR3 BREAST, the surviving fraction in test [1] (0.5 nM) was found to be 0.927 ± 0.058; in test [1] (1 nM), 0.948 ± 0.086; in test [1] (5 nM) it was 0.989 ± 0.088; in test [1] (10 nM), 1 ± 0.073; in test [1] (50 nM) it was 0.736 ± 0.056; in test [1] (100 nM), 0.459 ± 0.064. Besides, the surviving fraction was 0.206 ± 0.011 in test [1] (500 nM); 0.224 ± 0.024 in test [1] (1000 nM); 1.03 ± 0.087 with TIOGUANINE (0.5 nM); 0.956 ± 0.13 with TIOGUANINE (1 nM); 0.946 ± 0.13 with TIOGUANINE (5 nM); 1.04 ± 0.17 in the test with TIOGUANINE (10 nM). The surviving fraction turned out to be 1.11 ± 0.11 in the test with TIOGUANINE (50 nM), 0.939 ± 0.03 in the test with TIOGUANINE (100 nM), 1.08 ± 0.17 with TIOGUANINE (500 nM) and 1.05 ± 0.045 with TIOGUANINE (1000 nM).
